Reference: patent US20220267231A1, “FERTILIZER CONTAINING A SEED GRIND AND A METHOD OF USING THE FERTILIZER TO ENHANCE PLANT GROWTH” (Innovations for World Nutrition, LLC, priority 2020, published 2022)

Experiments:
Type in all cases: in vivo
[1] = tested on: corn; experiment: Early growth of corn in transparent cups, dry weight of seedlings; details: for Dry Weight of Roots / Total Dry Weight of Plant + Roots / % Difference from Baseline for Plant + Roots / % Difference from Baseline for Roots Only: corn; for Dry Weight of Roots / Total Dry Weight of Plant + Roots: 24 days after planting, .P buried at planting, .L buried 11 days after planting; for % Difference from Baseline for Plant + Roots / % Difference from Baseline for Roots Only: 24 days, compared to the baseline with the highest total weight
Description: Each cup was given 0.2 g urea in 25 mL of solution. Two corn seeds were planted in each cup 1 inch deep and 3 inches apart. The cups holding the soil were transparent plastic and were placed inside opaque cups. The seeds were planted in the soil against the inside surface of the transparent cups and the outer opaque cups protected the roots from light during growth. By removing the inner cups, the roots were viewed and pictures taken without disturbing the plants as they were developing and therefore a view of the early growth of the roots was possible. […] After planting the seeds, the mixtures in Table 12 were buried 1.27 cm (½ inch) deep in the center of each cup. Some of these were buried on the same day as the seed was planted (noted as .P in Table 13), and others were buried 11 days after the seed was planted (noted as .L in Table 13). […] If two seeds sprouted in a cup, the second was immediately removed. One cup for each formulation was tested. The baseline was tested in duplicate. Twenty-four days after planting the corn, the plants with roots were gently removed from the cups, rinsed, dried, and weighed. The % differences shown in Table 13 are compared to the baseline with the highest weight of total weight for the plant and roots.

[2] = tested on: wheat; experiment: Early growth of wheat in transparent cups, dry weight of seedlings; details: for Dry Weight of Roots Only / Dry Weight of Total Plant + Roots: 28 days after planting, .P buried at planting, .L buried 11 days after planting; for % Difference for Plant + Roots / % Difference for Roots Only: 28 days, compared to the baseline with the highest total weight
Description: Each cup was given 0.2 g urea in 25 mL of solution. Four wheat seeds were planted in each cup 1 inch deep and 3 inches apart. The cups holding the soil were transparent plastic and were placed inside opaque cups. The seeds were planted in the soil against the inside surface of the transparent cups and the outer opaque cups protected the roots from light during growth. By removing the inner cups, the roots were viewed and pictures taken without disturbing the plants as they were developing and therefore a view of the early growth of the roots was possible. […] After planting the seeds, the mixtures in Table 12 were buried 1.27 cm (½ inch) deep in the center of each cup. Some of these were buried on the same day as the seeds were planted (noted as .P in Table 14), and others were buried 11 days after the seed was planted (noted as .L in Table 14). If more than two seeds sprouted in a cup, the seedlings were removed to allow only two to remain. One of each formulation was tested. The baseline was tested in duplicate. Twenty-eight days after planting the wheat, the plants with roots were gently removed from the cups, rinsed, dried, and weighed.

[3] = tested on: cotton; experiment: Early growth of cotton in transparent cups, dry weight of plants and roots; details: cotton cup test
Description: Each cup was given 0.2 g urea in 25 mL of solution. […] The cups holding the soil were transparent plastic and were placed inside opaque cups. The seeds were planted in the soil against the inside surface of the transparent cups and the outer opaque cups protected the roots from light during growth. By removing the inner cups, the roots were viewed and pictures taken without disturbing the plants as they were developing and therefore a view of the early growth of the roots was possible. […] If two seeds sprouted in a cup, the second was immediately removed.

SMILES: O=C([O-])O.[K+] [A.P, potassium bicarbonate]
- Dry Weight of Roots [1]: 0.2313 g
- Total Dry Weight of Plant + Roots [1]: 0.5292 g
- Dry Weight of Roots ([1]; listed as A.L): 0.4121 g
- Total Dry Weight of Plant + Roots ([1]; listed as A.L): 0.7818 g
- % Difference from Baseline for Plant + Roots [1]: −20%
- % Difference from Baseline for Roots Only [1]: −29%
- % Difference from Baseline for Plant + Roots ([1]; listed as A.L): 18%
- % Difference from Baseline for Roots Only ([1]; listed as A.L): 26%
- Dry Weight of Roots Only [2]: 0.0669 g
- Dry Weight of Total Plant + Roots [2]: 0.2337 g
- Dry Weight of Roots Only ([2]; listed as A.L): 0.1166 g
- Dry Weight of Total Plant + Roots ([2]; listed as A.L): 0.2670 g
- % Difference for Plant + Roots [2]: −8%
- % Difference for Roots Only [2]: −46%
- % Difference for Plant + Roots ([2]; listed as A.L): 5%
- % Difference for Roots Only ([2]; listed as A.L): −6%

SMILES: O=C([O-])O.[K+] [H.P, potassium bicarbonate]
- Dry Weight of Roots [1]: 0.2744 g
- Total Dry Weight of Plant + Roots [1]: 0.5252 g
- Dry Weight of Roots ([1]; listed as H.L): 0.2538 g
- Total Dry Weight of Plant + Roots ([1]; listed as H.L): 0.5597 g
- % Difference from Baseline for Plant + Roots [1]: −20%
- % Difference from Baseline for Roots Only [1]: −16%
- % Difference from Baseline for Plant + Roots ([1]; listed as H.L): −15%
- % Difference from Baseline for Roots Only ([1]; listed as H.L): −22%
- Dry Weight of Roots Only [2]: 0.1334 g
- Dry Weight of Total Plant + Roots [2]: 0.3030 g
- Dry Weight of Roots Only ([2]; listed as H.L): 0.1286 g
- Dry Weight of Total Plant + Roots ([2]; listed as H.L): 0.2881 g
- % Difference for Plant + Roots [2]: 19%
- % Difference for Roots Only [2]: 7%
- % Difference for Plant + Roots ([2]; listed as H.L): 13%
- % Difference for Roots Only ([2]; listed as H.L): 3%

SMILES: O=C([O-])O.[K+] [KBC, potassium bicarbonate]
- Early growth of cotton plants and roots (in words) [3]: produced more benefit with early growth of cotton than sodium bicarbonate
- Benefit to early growth of corn (in words) ([1]; corn cup test): did not provide a benefit
